Measurements taken from the supplement of paper PMC10307832.

Columns and labels:
Test in all cases: relative viability (nuclei count vs DMSO), 5 days (fraction); higher = more cells survive
[1] = tested on: NCI-H358
Method in brief: (§1)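 Lung cancer cell lines in 1536-well plates were dosed by pin tool the day after seeding, either with one drug alone or with a fixed anchor-drug dose plus five library-drug doses (not always all listed) in √10 steps. After 5 days, cells were fixed and their nuclei stained in one step (final 0.05% Triton X-100, 1% formaldehyde, 1 ug/ml Hoechst), then counted on 4× images. Relative viability is the nuclei count in treated wells divided by that in vehicle wells. Values are medians of duplicate plates.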

[2] = tested on: NCI-H650
Method in brief: as §1

[3] = tested on: NCI-H2342
Method in brief: as §1

[4] = tested on: NCI-H596
Method in brief: as §1

[5] = tested on: NCI-H23
Method in brief: as §1

[6] = tested on: A-427
Method in brief: as §1

[7] = tested on: COR-L23
Method in brief: as §1

[8] = tested on: NCI-H1437
Method in brief: as §1

[9] = tested on: 201T
Method in brief: as §1

[10] = tested on: NCI-H1650
Method in brief: as §1

[11] = tested on: SK-MES-1
Method in brief: as §1

[12] = tested on: NCI-H1975
Method in brief: as §1

[13] = tested on: HCC-827
Method in brief: as §1

[14] = tested on: BEN
Method in brief: as §1

[15] = tested on: NCI-H441
Method in brief: as §1

[16] = tested on: SW 900
Method in brief: as §1

[17] = tested on: EKVX
Method in brief: as §1

[18] = tested on: HARA
Method in brief: as §1

[19] = tested on: HCC-15
Method in brief: as §1

[20] = tested on: NCI-H838
Method in brief: as §1

`COc1cc2nccc(Oc3ccc(NC(=O)Nc4cc(C)on4)c(Cl)c3)c2cc1OC` [Tivozanib] + COc1cc2c(Oc3ccc(NC(=O)C4(C(=O)Nc5ccc(F)cc5)CC4)cc3F)ccnc2cc1OCCCN1CCOCC1 [Foretinib] (partner 0.25 µM) showed a relative viability ([1]; first compound 0.005 µM) of 0.571, a relative viability ([1]; first compound 0.01581 µM) of 0.672 and a relative viability ([1]; first compound 0.05 µM) of 0.732. For the same molecule, the relative viability ([1]; first compound 0.1581 µM) was 0.639, the relative viability ([1]; first compound 0.5 µM) was 0.716 and the relative viability ([2]; first compound 0.005 µM) was 1. The relative viability ([2]; first compound 0.01581 µM) was 1.02, the relative viability ([2]; first compound 0.05 µM) was 0.994 and the relative viability ([2]; first compound 0.1581 µM) was 1.02. The relative viability ([2]; first compound 0.5 µM) was 0.928, the relative viability ([3]; first compound 0.005 µM) was 0.96 and the relative viability ([3]; first compound 0.01581 µM) was 1.11. For the same molecule, the relative viability ([3]; first compound 0.05 µM) was 1.11, the relative viability ([3]; first compound 0.5 µM) was 1.05 and the relative viability ([4]; first compound 0.005 µM) was 0.697. The relative viability ([4]; first compound 0.01581 µM) was 0.915, the relative viability ([4]; first compound 0.05 µM) was 0.846 and the relative viability ([4]; first compound 0.5 µM) was 0.879. It also gave a relative viability ([5]; first compound 0.005 µM) of 0.907, a relative viability ([5]; first compound 0.01581 µM) of 1.04 and a relative viability ([5]; first compound 0.05 µM) of 1.04. For the same molecule, the relative viability ([5]; first compound 0.1581 µM) was 0.942, the relative viability ([5]; first compound 0.5 µM) was 1.1 and the relative viability ([6]; first compound 0.005 µM) was 1.03. It also gave a relative viability ([6]; first compound 0.01581 µM) of 1.11, a relative viability ([6]; first compound 0.05 µM) of 1.05 and a relative viability ([6]; first compound 0.1581 µM) of 1.06. The relative viability ([6]; first compound 0.5 µM) was 1.02, the relative viability ([7]; first compound 0.005 µM) was 0.929 and the relative viability ([7]; first compound 0.01581 µM) was 0.943. It also gave a relative viability ([7]; first compound 0.05 µM) of 1.07, a relative viability ([7]; first compound 0.1581 µM) of 0.976 and a relative viability ([7]; first compound 0.5 µM) of 0.787. It also gave a relative viability ([8]; first compound 0.005 µM) of 1.1, a relative viability ([8]; first compound 0.01581 µM) of 1.22 and a relative viability ([8]; first compound 0.05 µM) of 1.18. It also gave a relative viability ([8]; first compound 0.1581 µM) of 1.24, a relative viability ([8]; first compound 0.5 µM) of 1.25 and a relative viability ([9]; first compound 0.005 µM) of 1.14. The relative viability ([9]; first compound 0.01581 µM) was 1.15, the relative viability ([9]; first compound 0.05 µM) was 1.08 and the relative viability ([9]; first compound 0.1581 µM) was 1.08. For the same molecule, the relative viability ([9]; first compound 0.5 µM) was 1.16, the relative viability ([10]; first compound 0.005 µM) was 0.955 and the relative viability ([10]; first compound 0.01581 µM) was 1.18. It also gave a relative viability ([10]; first compound 0.05 µM) of 1.15, a relative viability ([10]; first compound 0.1581 µM) of 0.935 and a relative viability ([10]; first compound 0.5 µM) of 1.08. For the same molecule, the relative viability ([11]; first compound 0.005 µM) was 0.862, the relative viability ([11]; first compound 0.01581 µM) was 0.974 and the relative viability ([11]; first compound 0.05 µM) was 1.01. For the same molecule, the relative viability ([11]; first compound 0.1581 µM) was 0.981, the relative viability ([11]; first compound 0.5 µM) was 0.924 and the relative viability ([12]; first compound 0.005 µM) was 0.938. The relative viability ([12]; first compound 0.01581 µM) was 0.967, the relative viability ([12]; first compound 0.05 µM) was 1.04 and the relative viability ([12]; first compound 0.1581 µM) was 0.965. The relative viability ([12]; first compound 0.5 µM) was 0.918, the relative viability ([13]; first compound 0.005 µM) was 0.994 and the relative viability ([13]; first compound 0.01581 µM) was 1.09. It also gave a relative viability ([13]; first compound 0.05 µM) of 1.02, a relative viability ([13]; first compound 0.1581 µM) of 1.09 and a relative viability ([13]; first compound 0.5 µM) of 1.01. For the same molecule, the relative viability ([14]; first compound 0.005 µM) was 0.559, the relative viability ([14]; first compound 0.01581 µM) was 0.789 and the relative viability ([14]; first compound 0.05 µM) was 0.731. The relative viability ([14]; first compound 0.1581 µM) was 0.25, the relative viability ([14]; first compound 0.5 µM) was 0.456 and the relative viability ([15]; first compound 0.005 µM) was 0.838. The relative viability ([15]; first compound 0.01581 µM) was 0.893, the relative viability ([15]; first compound 0.05 µM) was 1.12 and the relative viability ([15]; first compound 0.1581 µM) was 1.11. The relative viability ([15]; first compound 0.5 µM) was 0.934, the relative viability ([16]; first compound 0.005 µM) was 0.806 and the relative viability ([16]; first compound 0.01581 µM) was 0.884. It also gave a relative viability ([16]; first compound 0.05 µM) of 0.733, a relative viability ([16]; first compound 0.1581 µM) of 0.697 and a relative viability ([16]; first compound 0.5 µM) of 0.924. It also gave a relative viability ([17]; first compound 0.005 µM) of 0.695, a relative viability ([17]; first compound 0.01581 µM) of 0.891 and a relative viability ([17]; first compound 0.05 µM) of 0.84. For the same molecule, the relative viability ([17]; first compound 0.1581 µM) was 0.456, the relative viability ([17]; first compound 0.5 µM) was 0.786 and the relative viability ([18]; first compound 0.005 µM) was 0.859. It also gave a relative viability ([18]; first compound 0.01581 µM) of 0.855, a relative viability ([18]; first compound 0.05 µM) of 0.928 and a relative viability ([18]; first compound 0.1581 µM) of 0.952. For the same molecule, the relative viability ([18]; first compound 0.5 µM) was 0.905, the relative viability ([19]; first compound 0.005 µM) was 0.915 and the relative viability ([19]; first compound 0.01581 µM) was 0.994. For the same molecule, the relative viability ([19]; first compound 0.05 µM) was 0.993, the relative viability ([19]; first compound 0.1581 µM) was 1.03 and the relative viability ([19]; first compound 0.5 µM) was 0.977. It also gave a relative viability ([20]; first compound 0.005 µM) of 1.06, a relative viability ([20]; first compound 0.01581 µM) of 0.952 and a relative viability ([20]; first compound 0.05 µM) of 1.05. It also gave a relative viability ([20]; first compound 0.5 µM) of 1.03.
